Test results taken from patent US4503043A, “Substituted acyl derivatives of octahydro-1H-isoindole-1-carboxylic acids” (Warner-Lambert Company, priority 1982, dated 1985).
pIC50: −log10 of the molar value. Where a name gives a salt, the structure may show the parent alone.

molecular target: T1, guinea pig serum ACE (angiotensin converting enzyme) (Cavia porcellus, UniProt H0UWL7); assay: In vitro ACE Assay (angiotensin converting enzyme inhibitory activity); assay type: biochemical; details: 10 min preincubation, substrate 3H-hippuryl-glycylglycine, 60 min at 37° C.
T1 construct: ACE from guinea pig serum; from tissue; host or cells: guinea pig serum
T1 sequence (H0UWL7 33-1302): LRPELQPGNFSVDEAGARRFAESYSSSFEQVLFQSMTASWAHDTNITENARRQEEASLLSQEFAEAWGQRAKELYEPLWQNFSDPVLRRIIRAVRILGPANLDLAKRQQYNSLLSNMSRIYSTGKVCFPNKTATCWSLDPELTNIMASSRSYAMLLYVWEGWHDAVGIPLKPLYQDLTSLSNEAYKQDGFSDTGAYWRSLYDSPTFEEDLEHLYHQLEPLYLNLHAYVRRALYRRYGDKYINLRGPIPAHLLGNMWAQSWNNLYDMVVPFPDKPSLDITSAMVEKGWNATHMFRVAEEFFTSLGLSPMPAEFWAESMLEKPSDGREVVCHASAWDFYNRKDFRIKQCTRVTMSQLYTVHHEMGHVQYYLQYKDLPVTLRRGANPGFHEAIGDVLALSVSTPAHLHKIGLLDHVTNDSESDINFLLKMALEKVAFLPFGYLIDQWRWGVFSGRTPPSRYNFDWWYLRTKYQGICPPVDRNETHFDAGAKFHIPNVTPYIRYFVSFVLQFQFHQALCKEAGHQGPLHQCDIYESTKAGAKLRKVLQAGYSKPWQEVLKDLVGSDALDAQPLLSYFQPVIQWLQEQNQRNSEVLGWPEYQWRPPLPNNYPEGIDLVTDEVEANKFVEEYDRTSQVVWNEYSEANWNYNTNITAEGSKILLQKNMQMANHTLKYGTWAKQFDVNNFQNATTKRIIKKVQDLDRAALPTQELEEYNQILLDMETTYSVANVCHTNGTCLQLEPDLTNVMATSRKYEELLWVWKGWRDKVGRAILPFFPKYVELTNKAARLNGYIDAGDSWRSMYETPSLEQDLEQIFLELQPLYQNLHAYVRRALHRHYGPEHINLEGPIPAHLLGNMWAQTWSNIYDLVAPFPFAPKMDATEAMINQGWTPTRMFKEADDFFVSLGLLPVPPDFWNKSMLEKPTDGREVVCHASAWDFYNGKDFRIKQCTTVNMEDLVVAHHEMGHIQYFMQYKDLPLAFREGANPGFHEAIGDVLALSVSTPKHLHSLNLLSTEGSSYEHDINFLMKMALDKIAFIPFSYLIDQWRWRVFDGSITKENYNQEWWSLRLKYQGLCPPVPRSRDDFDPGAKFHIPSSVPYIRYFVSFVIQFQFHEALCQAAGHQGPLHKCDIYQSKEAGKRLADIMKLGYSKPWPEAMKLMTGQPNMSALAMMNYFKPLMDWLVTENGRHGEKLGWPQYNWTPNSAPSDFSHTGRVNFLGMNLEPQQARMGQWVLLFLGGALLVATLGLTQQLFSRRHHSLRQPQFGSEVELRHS
Experimental: In vitro ACE Assay: Angiotensin converting enzyme (ACE) inhibitory activity is determined by assaying guinea pig serum ACE in the presence and absence of the test compound. ACE from guinea pig serum and the test compounds are preincubated for 10 minutes before the addition of the labelled substrate ^3 H-hippuryl-glycylglycine. After a 60 minute incubation at 37° C. the reaction is stopped by the addition of 0.1N HCl. ACE cleaves the hippuryl-glycyl bond to form the dipeptide glycyl-glycine and ^3 H-hippuric acid. The ^3 H-hippuric acid is then extracted with ethyl acetate and the ACE inhibition of a given sample calculated on the basis of the ^3 H-hippuric acid generated.

Structure (SMILES)	pIC50
CC(=O)SCCC(=O)N1CC2CCCCC2C1C(=O)O (centres unmarked) [Example 1, 2-[3-(Acetylthio)-1-oxopropyl]octahydro-1H-isoindole-1-carboxylic acid]	5.92
O=C(O)C1C2CCCCC2CN1C(=O)CCS (centres unmarked) [Example 2, 2-(3-Mercaptopropanoyl)octahydro-1H-isoindole-1-carboxylic acid, dicyclohexylamine salt]	7.62
CC(=O)SCC(C)C(=O)N1CC2CCCCC2C1C(=O)O (centres unmarked) [Example 3, 2-[3-(Acetylthio)-2-methyl-1-oxopropyl]octahydro-1H-isoindole-1-carboxylic acid]	6.38
CC(CS)C(=O)N1CC2CCCCC2C1C(=O)O (centres unmarked) [Example 4, 2-[3-Mercapto-2-methyl-1-oxopropyl]octahydro-1H-isoindole-1-carboxylic acid]	7.55
CC(=O)SCCC(=O)N1C(=O)C2CCCCC2C1C(=O)O (centres unmarked) [Example 5, 2-[3-Acetylthio-1-oxopropyl]octahydro-3-oxo-1H-isoindole-1-carboxylic acid, dicyclohexylamine salt]	6.18
O=C(O)C1C2CCCCC2C(=O)N1C(=O)CCS (centres unmarked) [Example 6, 2-[3-Mercapto-1-oxopropyl]octahydro-3-oxo-1H-isoindole-1-carboxylic acid, dicyclohexylamine salt]	7.89
CC(=O)SCC(C)C(=O)N1C(=O)C2CCCCC2C1C(=O)O (centres unmarked) [Example 7, 2-[3-(Acetylthio)-2-methyl-1-oxopropyl]octahydro-3-oxo-1H-isoindole-1-carboxylic acid, dicyclohexylamine salt]	6.55
CC(CS)C(=O)N1C(=O)C2CCCCC2C1C(=O)O (centres unmarked) [Example 8, 2-[3-(Mercapto-2-methyl-1-oxopropyl]octahydro-3-oxo-1H-isoindole-1-carboxylic acid, dicyclohexylamine salt]	7.85
CCOC(=O)C(CCc1ccccc1)NC(C)C(=O)N1CC2CCCCC2C1C(=O)O (centres unmarked) [Example 12, 2-[2-[(1-Carbethoxy-3-phenylpropyl)amino]-1-oxopropyl]-octahydro-1H-isoindole-1-carboxylic acid, hydrochloride]	6.77
CC(NC(CCc1ccccc1)C(=O)O)C(=O)N1CC2CCCCC2C1C(=O)O (centres unmarked) [Example 13, 2-[2-[(1-Carboxy-3-phenylpropyl)amino]-1-oxopropyl]-octahydro-1H-isoindole-1-carboxylic acid]	8.59
CCOC(=O)[C@H](CCc1ccccc1)N[C@@H](C)C(=O)N1C(=O)C2CCCCC2C1C(=O)O (some centres unmarked) [Example 14, 2-[2-[(1-carbethoxy-3-phenylpropyl)amino]-1-oxopropyl]-octahydro-3-oxo-1H-isoindole-1-carboxylic acid, hydrochloride]	6.47
